In ChEMBL document CHEMBL1128534, “Cyclic lactam alpha-melanotropin analogues of Ac-Nle4-cyclo[Asp5, D-Phe7,Lys10] alpha-melanocyte-stimulating hormone-(4-10)-NH2 with bulky aromatic amino acids at position 7 show high antagonist potency and selectivity at specific melanocortin receptors” (J Med Chem, 1995):

Experiments:
Assay type in all cases: functional
[1] = molecular target: Melanocyte-stimulating hormone receptor (Mus musculus, UniProt Q01727)
[2] = molecular target: T1, Melanocyte-stimulating hormone receptor (Homo sapiens, UniProt Q01726); assay: Evaluated for agonist at […] frog (Rana pipiens) skin assay
T1 sequence (Q01726 whole entry): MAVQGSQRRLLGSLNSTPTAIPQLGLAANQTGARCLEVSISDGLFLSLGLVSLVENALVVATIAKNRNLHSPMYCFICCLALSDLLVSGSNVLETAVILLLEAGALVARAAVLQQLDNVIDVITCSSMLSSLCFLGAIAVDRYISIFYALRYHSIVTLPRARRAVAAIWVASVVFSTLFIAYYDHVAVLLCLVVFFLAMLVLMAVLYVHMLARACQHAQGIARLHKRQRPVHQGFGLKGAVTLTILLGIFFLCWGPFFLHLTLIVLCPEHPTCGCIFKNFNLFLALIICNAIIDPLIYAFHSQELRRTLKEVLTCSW

[3] = molecular target: T1, Melanocyte-stimulating hormone receptor

Chain of Melanocyte-stimulating hormone receptor (Mus musculus, UniProt Q01727) (Q01727 whole entry): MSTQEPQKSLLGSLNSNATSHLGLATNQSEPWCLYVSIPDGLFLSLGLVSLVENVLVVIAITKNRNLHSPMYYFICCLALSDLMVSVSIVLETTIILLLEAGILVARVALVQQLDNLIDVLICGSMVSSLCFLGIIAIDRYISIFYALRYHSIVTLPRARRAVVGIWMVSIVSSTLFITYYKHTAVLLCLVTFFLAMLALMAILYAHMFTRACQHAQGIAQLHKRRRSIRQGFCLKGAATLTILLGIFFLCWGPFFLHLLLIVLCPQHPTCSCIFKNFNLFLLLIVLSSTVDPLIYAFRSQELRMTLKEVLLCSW

| Structure (SMILES) | EC50 [1] [nM] | EC50 [2] [nM] | EC50 [3] [nM] |
| --- | --- | --- | --- |
| CCCC[C@H](NC(C)=O)C(=O)N[C@H]1CC(=O)NCCCC[C@@H](C(N)=O)NC(=O)[C@H](Cc2c[nH]c3ccccc23)NC(=O)[C@H](CCCNC(=N)N)NC(=O)[C@@H](Cc2ccc3ccccc3c2)NC(=O)[C@H](Cc2c[nH]cn2)NC1=O | 0.039 |  |  |
| CCCC[C@H](NC(C)=O)C(=O)N[C@H]1CC(=O)NCCCC[C@@H](C(N)=O)NC(=O)[C@H](Cc2c[nH]c3ccccc23)NC(=O)[C@H](CCCNC(=N)N)NC(=O)[C@@H](Cc2ccc(Cl)cc2)NC(=O)[C@H](Cc2cnc[nH]2)NC1=O | 0.0095 | 2 | 0.005 |
| CCCC[C@H](NC(C)=O)C(=O)N[C@H]1CC(=O)NCCCC[C@@H](C(N)=O)NC(=O)[C@H](Cc2c[nH]c3ccccc23)NC(=O)[C@H](CCCN=C(N)N)NC(=O)[C@@H](Cc2ccc(F)cc2)NC(=O)[C@H](Cc2c[nH]cn2)NC1=O | 0.026 | 0.1 | 0.016 |
| CCCC[C@H](NC(C)=O)C(=O)N[C@H]1CC(=O)NCCCC[C@@H](C(N)=O)NC(=O)[C@H](Cc2c[nH]c3ccccc23)NC(=O)[C@H](CCCN=C(N)N)NC(=O)[C@@H](Cc2ccc(I)cc2)NC(=O)[C@H](Cc2c[nH]cn2)NC1=O | 0.19 |  | 0.055 |
